The nature of data set [1]: Determination of fibre affinity: Ganz whiteness of bleached cotton after exhaust treatment at 95° C. To be noted: for Whiteness Value: Ganz whiteness, 0.2% whitener on fibre weight, exhaust method, liquor ratio 1:40, up to 95° C., measure of affinity to cotton. On the procedure:
Various bleached cotton swatches are treated by the exhaust method in an aqueous bath having the following composition: • 0.2% of test fluorescent whitener (100% active substance), based on the weight of the fibre, • 0.5 ml/l Ultravon EL™, • 20 ml/l 3% aqueous sodium hydroxide solutions, • 2 ml/l 10% aqueous sodium silicate solution and • 3 ml/l 35% aqueous hydrogen peroxide solution.
The fluorescent whiteners used were compounds (102)-(104) of the present invention and a commercial product having the formula [drawing 11]
The treatment is conducted at a liquor ratio of 1:40 for 30 minutes at from 25 to 95° C., then for a further 60 minutes at 95° C. and, finally, cooled to 30° C. The swatches are removed from the treatment bath, rinsed and dried at 60° C.
Due to the high application temperature of 95° C., the tested compounds must have high affinity to cotton to provide high whiteness levels. Consequently, the whiteness values are a suitable measure of affinity, i.e. high whiteness corresponds to high affinity.
Whiteness was measured according to the method of Ganz, which is described in detail in the Ciba-Geigy Review, 1973/1 and also in the article “Whiteness Measurement”, ISCC Conference on Fluorescence and the Colorimetry of Fluorescent Materials, Williamsburg, February 1972, published in the Journal of Color and Appearance, 1, No. 5 (1972).

The nature of data set [2]: Determination of pH stability: appearance of 0.8 g/l solution at different pH values on storage. Format: physicochemical. To be noted: 0.8 g/l in drinking water, dark, 25° C. As to the method:
(§1) The sensitivity of the test compounds (102)-(104) of the invention and of the commercial compound (103) to acidic pH values is evaluated in a bath and on the cotton fabric.
(§2) A solution containing 0.8 g/l of the test compound (as active ingredient) in drinking water (approximately 11° German hardness) is prepared and separate samples of the solution are adjusted to different pH values and stored in the dark at 25° C. The appearance of each sample is assessed immediately and also after 1, 2 and 4 hours storage.

Data set [3] is described as follows: Determination of pH stability: Ganz whiteness of bleached cotton padded with the stored solutions. To be noted: liquor pick-up 65%. On the procedure:
as §1, §2
Following the 4 hour appearance assessment, separate samples of bleached cotton are padded with the respective solutions (liquor pick-up 65%). The fabric samples are dried at 70° C. for 20 minutes and the whiteness values determined according to the method of Ganz.

Setting [4] is: cotton padded with pH 3 solution after 4 hours storage.
[5] abbreviates: cotton padded with pH 4 solution after 4 hours storage.
The mark [6] stands for this setting: cotton padded with pH 5 solution after 4 hours storage.
Setting [7] is: cotton padded with pH 6 solution after 4 hours storage.
Where [8] appears, read: cotton padded with pH 7 solution after 4 hours storage.

The record followed here is patent US6929667B2, “Method for the fluorescent whitening of cotton” (Ciba Specialty Chemicals Corporation, priority 2000, dated 2005).

Regarding `O=S(=O)([O-])c1cc(Nc2nc(Nc3ccc(S(=O)(=O)CCO)cc3)nc(N(CCO)CCO)n2)ccc1/C=C/c1ccc(Nc2nc(Nc3ccc(S(=O)(=O)CCO)cc3)nc(N(CCO)CCO)n2)cc1S(=O)(=O)[O-].[Na+].[Na+]` [(103)], the “Whiteness Value” in data set [1] is reported as 224. Besides, the Appearance of solution result in data set [2] (1 hour, pH 3) is “cloudy”; in data set [2] (1 hour, pH 4), “cloudy”; in data set [2] (1 hour, pH 5), “clear”; in data set [2] (1 hour, pH 6) it was “clear”; in data set [2] (1 hour, pH 7), “clear”; in data set [2] (2 hours, pH 3), “cloudy”. Besides, the Appearance of solution entry in data set [2] (2 hours, pH 4) is “cloudy”; in data set [2] (2 hours, pH 5), “clear”; in data set [2] (2 hours, pH 6), “clear”; in data set [2] (2 hours, pH 7), “clear”; in data set [2] (4 hours, pH 3), “cloudy”; in data set [2] (4 hours, pH 4) it was “cloudy”. For the same compound, the Appearance of solution entry in data set [2] (4 hours, pH 5) was “clear”; in data set [2] (4 hours, pH 6), “clear”; in data set [2] (4 hours, pH 7), “clear”; in data set [2] (Immediate, pH 3), “cloudy”; in data set [2] (Immediate, pH 5), “clear”; in data set [2] (Immediate, pH 6) it was “clear”. Moreover, in data set [2] (Immediate, pH 7), the Appearance of solution entry is “clear”. Besides, the Whiteness in data set [3] (setting [4]) was 53; in data set [3] (setting [5]), 115; in data set [3] (setting [6]), 160; in data set [3] (setting [7]), 184; in data set [3] (setting [8]) it was 186.

Consider `CC(O)CN(CC(C)O)c1nc(Nc2ccc(S(=O)(=O)CCO)cc2)nc(Nc2ccc(/C=C/c3ccc(Nc4nc(Nc5ccc(S(=O)(=O)CCO)cc5)nc(N(CC(C)O)CC(C)O)n4)cc3S(=O)(=O)[O-])c(S(=O)(=O)[O-])c2)n1.[Na+].[Na+]` (stereo not drawn) [(102)], for which the “Whiteness Value” in data set [1] is given as 234. Moreover, the “Affinity to the fibre (judged from whiteness value)” value in data set [1] (whiteness only slightly lower than that of the conventional commercial FWA) is on record as “high affinity to the fibre”. Moreover, the Appearance of solution result in data set [2] (1 hour, pH 4) is “clear”; in data set [2] (1 hour, pH 5), “clear”; in data set [2] (1 hour, pH 6), “clear”; in data set [2] (1 hour, pH 7) it was “clear”; in data set [2] (2 hours, pH 4), “clear”; in data set [2] (2 hours, pH 5) it was “clear”. Further, the Appearance of solution entry in data set [2] (2 hours, pH 6) is “clear”; in data set [2] (2 hours, pH 7), “clear”; in data set [2] (4 hours, pH 4), “clear”; in data set [2] (4 hours, pH 5), “clear”; in data set [2] (4 hours, pH 6), “clear”; in data set [2] (4 hours, pH 7), “clear”. In addition, the Appearance of solution entry is “clear” in data set [2] (Immediate, pH 4); “clear” in data set [2] (Immediate, pH 5); “clear” in data set [2] (Immediate, pH 6); “clear” in data set [2] (Immediate, pH 7). Also, the Whiteness in data set [3] (setting [4]) turned out to be 171; in data set [3] (setting [5]) it was 192; in data set [3] (setting [6]), 194; in data set [3] (setting [7]) it was 193; in data set [3] (setting [8]) it was 193.
